Legend:
PDGFβ [1] = target: T1, PDGFβ (Homo sapiens, UniProt P09619); test: PDGFβ enzyme assay; assay type: biochemical; details: Table IV, amide or urea linker
PDGFβ [2] = target: T1, PDGFβ; test: PDGF stimulated Ca2+ signal in vitro (FLIPR); assay type: cell-based; design: host or cells: NHDF-Ad (normal human dermal fibroblasts); details: NHDF-Ad, PDGF stimulation 10 ng/mL; Table IV, amide or urea linker; read-out: PDGFβ Cellular IC50
[3] = target: T2, human VEGF receptor (VEGFR-2) (Homo sapiens, UniProt P35968); test: VEGFR2 kinase assay; assay type: biochemical; details: His-VEGFR-2 cytoplasmic domain, 3.6 μM ATP; Table IV, amide or urea linker; read-out: VEGFR2 Enzyme IC50
T2 construct: The cytoplasmic domain of the human VEGF receptor (VEGFR-2) was expressed; His; made in house; host or cells: insect cells (baculovirus)
T2 sequence (P35968 786-1356 limits assumed): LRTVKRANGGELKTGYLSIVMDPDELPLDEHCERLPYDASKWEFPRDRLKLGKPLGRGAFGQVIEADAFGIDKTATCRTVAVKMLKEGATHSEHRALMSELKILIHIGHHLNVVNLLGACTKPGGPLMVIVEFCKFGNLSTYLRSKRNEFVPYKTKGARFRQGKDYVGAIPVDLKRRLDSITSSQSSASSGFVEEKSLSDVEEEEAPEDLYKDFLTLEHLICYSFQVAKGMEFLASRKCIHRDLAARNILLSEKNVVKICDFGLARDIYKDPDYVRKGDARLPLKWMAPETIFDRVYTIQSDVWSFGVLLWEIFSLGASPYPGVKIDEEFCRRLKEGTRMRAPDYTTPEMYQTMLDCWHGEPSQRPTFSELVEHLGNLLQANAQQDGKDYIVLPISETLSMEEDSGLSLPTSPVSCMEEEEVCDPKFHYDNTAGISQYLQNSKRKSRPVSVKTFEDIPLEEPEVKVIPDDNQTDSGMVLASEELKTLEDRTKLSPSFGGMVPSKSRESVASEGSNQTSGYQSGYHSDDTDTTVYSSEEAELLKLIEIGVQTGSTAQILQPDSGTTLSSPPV
Procedure, shortened: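 His-tagged VEGFR-2 cytoplasmic domain from baculovirus-infected insect cells phosphorylating plate-bound poly-Glu-Tyr (4:1). IC50 from blank-subtracted optical density versus compound concentration.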

VEGFR1 = VEGFR1 (Homo sapiens, UniProt P17948); test: VEGFR1 enzyme assay; assay type: biochemical; details: Table IV, amide or urea linker
Sequence of VEGFR1 (P17948 27-1338, species assumed): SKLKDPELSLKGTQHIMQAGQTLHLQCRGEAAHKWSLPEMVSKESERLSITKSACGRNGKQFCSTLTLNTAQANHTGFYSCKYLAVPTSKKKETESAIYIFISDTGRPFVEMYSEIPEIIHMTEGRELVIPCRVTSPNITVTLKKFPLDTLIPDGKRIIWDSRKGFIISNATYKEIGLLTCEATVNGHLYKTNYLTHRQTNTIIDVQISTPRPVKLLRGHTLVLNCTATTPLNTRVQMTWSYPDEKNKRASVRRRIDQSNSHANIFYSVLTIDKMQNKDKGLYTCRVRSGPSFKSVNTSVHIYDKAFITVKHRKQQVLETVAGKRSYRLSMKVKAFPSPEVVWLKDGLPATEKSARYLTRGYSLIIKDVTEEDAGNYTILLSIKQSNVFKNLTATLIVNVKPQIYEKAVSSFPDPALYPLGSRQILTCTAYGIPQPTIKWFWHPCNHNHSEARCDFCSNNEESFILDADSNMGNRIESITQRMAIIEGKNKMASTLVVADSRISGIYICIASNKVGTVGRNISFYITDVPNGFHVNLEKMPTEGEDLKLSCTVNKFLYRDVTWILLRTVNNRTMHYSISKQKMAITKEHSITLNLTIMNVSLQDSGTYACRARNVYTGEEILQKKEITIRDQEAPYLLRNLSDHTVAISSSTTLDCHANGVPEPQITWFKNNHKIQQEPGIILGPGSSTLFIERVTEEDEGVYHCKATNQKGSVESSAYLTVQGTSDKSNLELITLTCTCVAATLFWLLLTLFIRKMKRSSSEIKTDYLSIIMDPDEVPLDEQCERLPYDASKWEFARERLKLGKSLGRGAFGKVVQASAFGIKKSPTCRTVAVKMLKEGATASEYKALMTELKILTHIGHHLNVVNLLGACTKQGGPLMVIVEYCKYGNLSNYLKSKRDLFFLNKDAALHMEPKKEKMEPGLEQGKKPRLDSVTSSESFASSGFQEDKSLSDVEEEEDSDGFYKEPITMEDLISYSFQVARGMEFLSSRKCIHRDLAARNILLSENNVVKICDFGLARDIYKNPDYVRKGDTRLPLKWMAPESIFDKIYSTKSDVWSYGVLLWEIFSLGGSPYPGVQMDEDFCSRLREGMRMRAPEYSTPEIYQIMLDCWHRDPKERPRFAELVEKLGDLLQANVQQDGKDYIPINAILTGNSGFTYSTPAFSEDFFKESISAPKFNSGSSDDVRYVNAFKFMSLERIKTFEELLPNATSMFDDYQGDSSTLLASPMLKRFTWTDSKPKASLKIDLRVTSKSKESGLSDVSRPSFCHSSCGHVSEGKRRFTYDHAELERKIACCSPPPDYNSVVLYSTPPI

VEGFR2 = VEGFR2 (Homo sapiens, UniProt P35968); test: VEGF stimulated Ca++ signal in vitro (FLIPR)
Sequence of VEGFR2 (P35968 20-1356): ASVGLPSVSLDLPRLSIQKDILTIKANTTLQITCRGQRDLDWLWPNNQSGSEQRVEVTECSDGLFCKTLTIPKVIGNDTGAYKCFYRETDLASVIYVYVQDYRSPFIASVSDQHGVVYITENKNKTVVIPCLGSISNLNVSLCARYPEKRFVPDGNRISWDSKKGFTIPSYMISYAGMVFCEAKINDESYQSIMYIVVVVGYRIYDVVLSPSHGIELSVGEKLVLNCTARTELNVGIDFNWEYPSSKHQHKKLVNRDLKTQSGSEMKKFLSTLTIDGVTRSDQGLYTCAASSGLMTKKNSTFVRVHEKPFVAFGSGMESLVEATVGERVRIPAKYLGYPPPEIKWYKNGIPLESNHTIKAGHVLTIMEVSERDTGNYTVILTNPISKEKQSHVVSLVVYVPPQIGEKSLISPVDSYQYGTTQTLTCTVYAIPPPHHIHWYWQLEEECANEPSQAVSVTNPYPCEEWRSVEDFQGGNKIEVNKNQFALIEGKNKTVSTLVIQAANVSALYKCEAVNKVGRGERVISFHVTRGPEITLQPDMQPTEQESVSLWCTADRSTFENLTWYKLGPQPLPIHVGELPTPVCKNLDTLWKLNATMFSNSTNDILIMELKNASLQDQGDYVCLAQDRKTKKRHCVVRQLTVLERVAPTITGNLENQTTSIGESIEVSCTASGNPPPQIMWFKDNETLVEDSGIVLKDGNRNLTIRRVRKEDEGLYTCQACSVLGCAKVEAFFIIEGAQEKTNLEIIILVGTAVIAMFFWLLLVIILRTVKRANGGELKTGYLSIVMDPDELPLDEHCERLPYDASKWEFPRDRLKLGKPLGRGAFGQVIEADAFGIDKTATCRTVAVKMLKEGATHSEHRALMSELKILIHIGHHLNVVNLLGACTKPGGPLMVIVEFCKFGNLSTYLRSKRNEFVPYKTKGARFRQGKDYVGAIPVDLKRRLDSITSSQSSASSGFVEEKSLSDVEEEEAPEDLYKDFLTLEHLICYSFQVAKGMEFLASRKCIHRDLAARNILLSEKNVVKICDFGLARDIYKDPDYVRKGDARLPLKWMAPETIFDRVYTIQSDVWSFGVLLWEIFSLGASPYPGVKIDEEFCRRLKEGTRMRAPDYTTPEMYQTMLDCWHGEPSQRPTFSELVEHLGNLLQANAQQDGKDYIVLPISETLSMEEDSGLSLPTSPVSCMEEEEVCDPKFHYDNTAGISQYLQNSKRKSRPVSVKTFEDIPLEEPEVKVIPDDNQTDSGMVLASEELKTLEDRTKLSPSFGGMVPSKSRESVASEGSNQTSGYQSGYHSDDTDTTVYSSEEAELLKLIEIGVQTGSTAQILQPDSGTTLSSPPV
Description: VEGF Stimulated Ca^++Signal in Vitro
Automated FLIPR (Fluorometric Imaging Plate Reader) technology was used to screen for inhibitors of VEGF induced increases in intracellular calcium levels in fluorescent dye loaded endothelial cells. HUVEC (human umbilical vein endothelial cells) (Clonetics) were seeded in 96-well fibronectin coated black-walled plates overnight at 37 degree. C./5% CO2. […] C. Cells were washed 4 times (Original Cell Wash, Labsystems) to remove extracellular dye. […] Data were generated by determining max-min fluorescence levels for unstimulated, stimulated, and drug treated samples. IC50 values for test compounds were calculated from % inhibition of VEGF stimulated responses in the absence of inhibitor.

T1 sequence (P09619 33-1106): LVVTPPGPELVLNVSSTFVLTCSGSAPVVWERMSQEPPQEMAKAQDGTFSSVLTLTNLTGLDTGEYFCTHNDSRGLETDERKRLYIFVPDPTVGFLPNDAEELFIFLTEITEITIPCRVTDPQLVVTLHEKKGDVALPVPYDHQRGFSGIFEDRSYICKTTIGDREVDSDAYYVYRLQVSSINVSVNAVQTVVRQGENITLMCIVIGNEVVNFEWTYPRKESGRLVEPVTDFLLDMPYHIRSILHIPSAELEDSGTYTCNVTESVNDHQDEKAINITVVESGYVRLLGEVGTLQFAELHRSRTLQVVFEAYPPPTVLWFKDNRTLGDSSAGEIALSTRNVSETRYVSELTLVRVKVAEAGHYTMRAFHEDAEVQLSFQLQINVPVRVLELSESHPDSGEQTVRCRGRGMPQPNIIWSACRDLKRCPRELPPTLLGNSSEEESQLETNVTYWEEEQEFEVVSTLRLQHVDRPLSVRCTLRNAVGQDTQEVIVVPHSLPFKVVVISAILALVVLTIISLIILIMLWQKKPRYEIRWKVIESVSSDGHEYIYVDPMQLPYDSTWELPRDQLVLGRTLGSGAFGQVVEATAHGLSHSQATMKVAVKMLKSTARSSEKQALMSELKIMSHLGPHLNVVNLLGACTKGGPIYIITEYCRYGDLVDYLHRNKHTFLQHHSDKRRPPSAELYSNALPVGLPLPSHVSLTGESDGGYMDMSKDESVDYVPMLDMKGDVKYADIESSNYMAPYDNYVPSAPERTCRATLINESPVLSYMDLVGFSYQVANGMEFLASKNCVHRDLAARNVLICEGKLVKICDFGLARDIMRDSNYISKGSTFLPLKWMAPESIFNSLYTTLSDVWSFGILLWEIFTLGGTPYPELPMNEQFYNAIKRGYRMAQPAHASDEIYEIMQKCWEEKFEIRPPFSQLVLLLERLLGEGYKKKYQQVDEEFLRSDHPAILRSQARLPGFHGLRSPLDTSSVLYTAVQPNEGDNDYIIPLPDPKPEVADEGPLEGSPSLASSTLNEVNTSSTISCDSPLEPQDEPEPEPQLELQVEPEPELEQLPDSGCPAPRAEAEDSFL

IC50 (PDGFβ [1]) [nM]	IC50 (PDGFβ [2]) [nM]	IC50 [3] [nM]	IC50 (VEGFR1) [nM]	IC50 (VEGFR2) [nM]	SMILES
34	32				COC(=O)CCNC(=O)c1c[nH]c(-c2cc(Oc3ccc(NC(=O)Nc4cc(C)ccc4F)c(F)c3)ccn2)c1 [Example 175, methyl 3-{[(5-{4-[3-fluoro-4-({[(2-fluoro-5-methylphenyl)amino]carbonyl}amino)phenoxy]pyridin-2-yl}-1H-pyrrol-3-yl)carbonyl]amino}propanoate]
38	78				COC(=O)CCCNC(=O)c1c[nH]c(-c2cc(Oc3ccc(NC(=O)Nc4cc(C)ccc4F)cc3)ccn2)c1 [Example 176, methyl 4-{[(5-{4-[4-({[(2-fluoro-5-methylphenyl)amino]carbonyl}amino)phenoxy]pyridin-2-yl}-1H-pyrrol-3-yl)carbonyl]amino}butanoate]
59	214	17	16		Cc1ccc(F)c(NC(=O)Nc2ccc(Oc3ccnc(-c4cc(C(=O)NCCNC(=O)OC(C)(C)C)c[nH]4)c3)cc2F)c1 [Example 216, tert-butyl (2-{[(5-{4-[3-fluoro-4-({[(2-fluoro-5-methylphenyl)amino]carbonyl}amino)phenoxy]pyridin-2-yl}-1H-pyrrol-3-yl)carbonyl]amino}ethyl)carbamate]
9		11	11	13	Cc1ccc(F)c(NC(=O)Nc2ccc(Oc3ccnc(-c4cc(C(=O)OCCCN5CCOCC5)c[nH]4)c3)cc2F)c1 [Example 229, 3-morpholin-4-ylpropyl 5-{4-[3-fluoro-4-({[(2-fluoro-5-methylphenyl)amino]carbonyl}amino)phenoxy]pyridin-2-yl}-1H-pyrrole-3-carboxylate]
12	31	6	9	2	COC(=O)CC[C@H](NC(=O)c1c[nH]c(-c2cc(Oc3ccc(NC(=O)Nc4cccc(C)c4)c(F)c3)ccn2)c1)C(=O)OC [Example 230, dimethyl 2-{[(5-{4-[3-fluoro-4-({[(3-methylphenyl)amino]carbonyl}amino)phenoxy]pyridin-2-yl}-1H-pyrrol-3-yl)carbonyl]amino}pentanedioate]
43	32				CCOC(=O)CCNC(=O)c1c[nH]c(-c2cc(Oc3ccc(NC(=O)Nc4cc(C)ccc4F)c(F)c3)ccn2)c1 [Example 231, ethyl 3-{[(5-{4-[3-fluoro-4-({[(2-fluoro-5-methylphenyl)amino]carbonyl}amino)phenoxy]pyridin-2-yl}-1H-pyrrol-3-yl)carbonyl]amino}propanoate]
20		9	16	5	COC(=O)CN(CCCNC(=O)c1c[nH]c(-c2cc(Oc3ccc(NC(=O)Nc4cc(C)ccc4F)cc3)ccn2)c1)CC(=O)OC [Example 232, dimethyl 2,2′-[(3-{[(5-{4-[4-({[(2-fluoro-5-methylphenyl)amino]carbonyl}amino)phenoxy]pyridin-2-yl}-1H-pyrrol-3-yl)carbonyl]amino}propyl)imino]diacetate]
19		8	8	3	Cc1cccc(NC(=O)Nc2ccc(Oc3ccnc(-c4cc(C(=O)NCCCO)c[nH]4)c3)cc2)c1 [Example 237]
27		10	19	4	Cc1ccc(F)c(NC(=O)Nc2ccc(Oc3ccnc(-c4cc(C(=O)NN)c[nH]4)c3)cc2)c1 [Example 241, 1-(2-fluoro-5-methylphenyl)-3-[4-({2-[4-(hydrazinocarbonyl)-1H-pyrrol-2-yl]pyridin-4-yl}oxy)phenyl]urea]
80		16	39	5	COC(=O)[C@@H]1CCCN1CCCNC(=O)c1c[nH]c(-c2cc(Oc3cc(C(=O)Nc4cc(C)ccc4F)ccc3F)ccn2)c1 [Example 243, methyl (2S)-1-{3-[({5-[4-(2-fluoro-5-{[(2-fluoro-5-methylphenyl)amino]carbonyl}phenoxy)pyridin-2-yl]-1H-pyrrol-3-yl}carbonyl)amino]propyl}pyrrolidine-2-carboxylate]
100	108	12			CCNC(=O)[C@H](CCC(=O)OC)NC(=O)c1c[nH]c(-c2cc(Oc3cc(C(=O)Nc4cc(C)ccc4F)ccc3F)ccn2)c1 [Example 261, methyl 5-(ethylamino)-4-[({5-[4-(2-fluoro-5-{[(2-fluoro-5-methylphenyl)amino]carbonyl}phenoxy)pyridin-2-yl]-1H-pyrrol-3-yl}carbonyl)amino]-5-oxopentanoate]
18		7	8	8	COC(=O)CC[C@H](NC(=O)c1c[nH]c(-c2cc(Oc3ccc(NC(=O)Nc4cc(C)ccc4F)c(F)c3)ccn2)c1)C(=O)OC [Example 270, dimethyl 2-{[(5-{4-[3-fluoro-4-({[(2-fluoro-5-methylphenyl)amino]carbonyl}amino)phenoxy]pyridin-2-yl}-1H-pyrrol-3-yl)carbonyl]amino}pentanedioate]
27		11	16	10	Cc1ccc(F)c(NC(=O)Nc2ccc(Oc3ccnc(-c4cc(C(=O)OCCCN5CCOCC5)c[nH]4)c3)cc2)c1 [Example 274, 3-morpholin-4-ylpropyl 5-{4-[4-({[(2-fluoro-5-methylphenyl)amino]carbonyl}amino)phenoxy]pyridin-2-yl}-1H-pyrrole-3-carboxylate]
